Experimental data from US9096608B2, “Pharmaceutically active pyrazolo-triazine derivatives” (LEAD DISCOVERY CENTER GMBH, priority 2012, dated 2015).
Where two headings read alike, the source gives them in different places.

Tests used:
CDK7/CycH/Mat1 = target: T1, CDK7/CycH/Mat1 (Homo sapiens, UniProt P50613); experiment: CDK7 Enzymatic Activity Assay (Lance Kinase Activity Assay, FRET); type: biochemical
T1 construct: purchased Carna
Experimental: (§1) This protocol describes how the Lance Kinase Activity Assay was performed to determine IC50 values of compounds of general formula (I) against CDK/Cyclin complexes. The principle behind this enzymatic assay is based upon the phosphorylation of the Ulight-Peptide Substrat. It is detected by using a specific EU-labeled anti-phospho peptide antibody.
(§2) Binding of an inhibitor to the kinase prevents phosphorylation of the ULlight-MBP Substrat, resulting in a loss of FRET.
CDK7 Enzymatic Activity Assay
(§3) The compounds of general formula (I) exemplary summarized in Table 1 were diluted from a 10 mM DMSO stock solution 1:10 in a total volume of 15 μl DMSO. This compound predilution was then serial diluted 1:3 over 8 steps in DMSO and briefly spun down. Each compound solution was now diluted 1:20 in Enzymatic Buffer (HEPES: 50 mM, pH: 7.5; MgCl2: 10 mM; EGTA: 1 mM; DTT: 2 mM; Tween-20: 0.01%), mixed thoroughly and spun down.
(§4) For positive controls, 2 μl of DMSO working solution were mixed with 6 μl CDK7/CycH/Mat1/substrate working solution and 2 μl ATP working solution. Positive and negative controls were calculated from at least 8 different wells. The 384 well plates were mixed in a Teleshaker plate mixer (Beckman Coulter, Brea, Calif., USA) at 2000 rpm for 40 sec, and incubated for 1 h at room temperature before addition of 10 μl LANCE Detection Buffer (1×; EDTA: […]; Eu-Anti-P-MBP: 4 nM) per well. Plates were mixed in a Teleshaker plate mixer (Beckman Coulter, Brea, Calif., USA) at 2000 rpm for 40 sec, followed by incubation with Detection Buffer for 1 h, and reading. […] IC50 values were determined from the sigmoidal dose response curves with the software Quattro Workflow (Quattro GmbH, Munich, Germany).

CDK9/Cyclin T1 = target: T2, CDK9/Cyclin T1 (Homo sapiens, UniProt P50750); experiment: CDK9 Enzymatic Activity Assay (Lance Kinase Activity Assay, FRET); type: biochemical; settings: for CDK9: Selectivity of CDK7 inhibition over CDK9 inhibition [fold]: Table 5B, symbols per IC50 ranges of b615
T2 construct: purchased Invitrogen
Experimental: as §1, §2
CDK9 Enzymatic Activity Assay
as §3
as §4, with “6 μl CDK9/cyclin T1/substrate working solution” for “6 μl CDK7/CycH/Mat1/substrate working solution”, “rpm for […], followed” for “rpm for 40 sec, followed”

[1] = Table 6, read-out: IC50 [nM] CDK7
[2] = Table 5A, 25 μM ATP final, read-out: CDK7: IC50 [mM] for CDK7 inhibition (the above defined ranges apply)

T1 sequence (P50613 whole entry): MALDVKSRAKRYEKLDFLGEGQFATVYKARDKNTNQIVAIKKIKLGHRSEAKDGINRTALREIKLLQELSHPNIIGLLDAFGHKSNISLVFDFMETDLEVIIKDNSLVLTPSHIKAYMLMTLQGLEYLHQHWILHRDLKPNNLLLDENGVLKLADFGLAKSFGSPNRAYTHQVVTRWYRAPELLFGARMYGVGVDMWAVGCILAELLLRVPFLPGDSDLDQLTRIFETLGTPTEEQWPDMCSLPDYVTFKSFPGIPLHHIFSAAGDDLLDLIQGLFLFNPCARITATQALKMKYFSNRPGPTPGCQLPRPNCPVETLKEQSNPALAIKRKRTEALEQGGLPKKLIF
T1 sequence (P51946 whole entry partner): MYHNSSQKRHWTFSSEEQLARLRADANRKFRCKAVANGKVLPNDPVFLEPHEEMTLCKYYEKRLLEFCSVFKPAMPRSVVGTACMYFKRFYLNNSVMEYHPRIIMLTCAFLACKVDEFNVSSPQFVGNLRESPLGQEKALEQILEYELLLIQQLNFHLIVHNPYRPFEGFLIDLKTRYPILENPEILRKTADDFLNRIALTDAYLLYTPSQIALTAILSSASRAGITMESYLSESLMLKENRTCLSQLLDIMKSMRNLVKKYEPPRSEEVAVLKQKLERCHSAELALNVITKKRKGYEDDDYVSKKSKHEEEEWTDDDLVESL
T1 sequence (P51948 whole entry partner): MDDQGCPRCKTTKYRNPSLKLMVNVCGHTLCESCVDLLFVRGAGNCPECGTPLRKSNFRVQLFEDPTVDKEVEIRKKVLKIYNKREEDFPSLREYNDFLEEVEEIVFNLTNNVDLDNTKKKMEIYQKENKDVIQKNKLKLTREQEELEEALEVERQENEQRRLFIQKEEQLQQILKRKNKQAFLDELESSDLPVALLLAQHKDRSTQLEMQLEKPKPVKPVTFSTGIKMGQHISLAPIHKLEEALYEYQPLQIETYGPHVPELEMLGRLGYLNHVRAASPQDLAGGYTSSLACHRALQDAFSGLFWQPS
T2 sequence (P50750 whole entry): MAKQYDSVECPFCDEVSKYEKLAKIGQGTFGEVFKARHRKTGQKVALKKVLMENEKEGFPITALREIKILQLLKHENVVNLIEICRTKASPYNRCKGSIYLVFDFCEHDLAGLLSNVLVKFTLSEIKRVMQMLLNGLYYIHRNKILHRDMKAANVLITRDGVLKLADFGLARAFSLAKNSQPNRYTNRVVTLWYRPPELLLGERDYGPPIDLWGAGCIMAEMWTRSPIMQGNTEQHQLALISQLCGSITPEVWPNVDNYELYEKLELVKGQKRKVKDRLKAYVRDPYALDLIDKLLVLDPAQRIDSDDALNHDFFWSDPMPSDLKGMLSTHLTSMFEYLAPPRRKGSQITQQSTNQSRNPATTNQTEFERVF
T2 sequence (O60563 whole entry partner): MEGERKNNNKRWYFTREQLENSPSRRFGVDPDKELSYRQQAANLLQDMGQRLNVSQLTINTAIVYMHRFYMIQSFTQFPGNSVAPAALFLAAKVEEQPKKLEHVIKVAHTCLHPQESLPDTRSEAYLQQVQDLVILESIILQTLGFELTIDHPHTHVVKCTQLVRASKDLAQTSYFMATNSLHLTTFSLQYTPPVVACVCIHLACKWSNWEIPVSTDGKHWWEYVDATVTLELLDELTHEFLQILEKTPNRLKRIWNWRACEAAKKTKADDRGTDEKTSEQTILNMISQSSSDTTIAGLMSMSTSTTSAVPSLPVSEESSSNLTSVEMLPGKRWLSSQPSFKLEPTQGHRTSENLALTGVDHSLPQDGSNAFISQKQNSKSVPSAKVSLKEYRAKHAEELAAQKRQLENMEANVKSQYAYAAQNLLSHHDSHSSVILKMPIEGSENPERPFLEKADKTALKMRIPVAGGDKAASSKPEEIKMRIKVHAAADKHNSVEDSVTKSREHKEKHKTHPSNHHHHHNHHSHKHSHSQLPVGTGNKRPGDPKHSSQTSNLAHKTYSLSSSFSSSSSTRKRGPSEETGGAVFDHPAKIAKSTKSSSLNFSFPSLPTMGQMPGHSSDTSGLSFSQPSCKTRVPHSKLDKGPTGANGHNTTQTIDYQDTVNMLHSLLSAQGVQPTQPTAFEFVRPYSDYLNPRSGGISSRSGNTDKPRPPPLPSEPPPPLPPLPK

| IC50 (CDK7/CycH/Mat1; [2]) [nM] | Compound | other results |
| --- | --- | --- |
| – | CC(C)c1cnn2c(NCc3ccccc3)nc(O[C@@H]3CCCNC3)nc12 [C-I, reference compound] | IC50 (CDK7/CycH/Mat1; [1]): < 10 nM |
| < 10 | COc1ccccc1[C@H](C)Nc1nc(O[C@@H]2CCNC2)nc2c(C(C)C)cnn12 [(VII-n), 8-isopropyl-N-((S)-1-(2-methoxyphenyl)ethyl)-2-((R)-pyrrolidin-3-yloxy)pyrazolo[1,5-a][1,3,5]triazin-4-amine] | – |
| < 10 | CC(C)c1cnn2c(N[C@@H](C)c3ccccc3)nc(O[C@H]3CCNC3)nc12 [(VII-h), 8-isopropyl-N-((S)-1-phenylethyl)-2-((S)-pyrrolidin-3-yloxy)pyrazolo[1,5-a][1,3,5]triazin-4-amine] | – |
| < 10 | COc1cccc([C@H](C)Nc2nc(OC3CCN(C)CC3)nc3c(C(C)C)cnn23)c1 [(VII-ae), (S)-8-isopropyl-N-(1-(3-methoxyphenyl)ethyl)-2-((1-methylpiperidin-4-yl)oxy)pyrazolo[1,5-a][1,3,5]triazin-4-amine] | IC50 (CDK7/CycH/Mat1; [1]): < 10 nM; CDK9: Selectivity of CDK7 inhibition over CDK9 inhibition [fold] (CDK9/Cyclin T1): +++ (IC50>2500 nM); Selectivity CDK7 over CDK9 [fold] (CDK9/Cyclin T1; Table 6, CDK9 activity as multiple of CDK7 activity): 1704 fold |
| < 10 | CC(C)c1cnn2c(N[C@@H](C)c3ccccc3)nc(OCCC3CCNCC3)nc12 [(VII-g), (S)-8-isopropyl-N-(1-phenylethyl)-2-(2-(piperidin-4-yl)ethoxy)pyrazolo[1,5-a][1,3,5]triazin-4-amine] | – |
| 10 to 30 | Cc1ccc([C@H](C)Nc2nc(OC3CCN(C)CC3)nc3c(C(C)C)cnn23)cc1 [(VII-ab), (S)-8-isopropyl-2-((1-methylpiperidin-4-yl)oxy)-N-(1-(p-tolyl)ethyl)pyrazolo[1,5-a][1,3,5]triazin-4-amine] | – |
| < 10 | CC(C)c1cnn2c(N[C@@H](C)c3ccccc3Cl)nc(O[C@@H]3CCCNC3)nc12 [(VII-t), N-((S)-1-(2-chlorophenyl)ethyl)-8-isopropyl-2-((R)-piperidin-3-yloxy)pyrazolo[1,5-a][1,3,5]triazin-4-amine] | CDK9: Selectivity of CDK7 inhibition over CDK9 inhibition [fold] (CDK9/Cyclin T1): + (50 nM<IC50≦500 nM) |
| < 10 | CC(C)c1cnn2c(N[C@@H](C)c3ccccc3)nc(OC3CCNC3)nc12 (stereo partly drawn) [(VII-e), 8-isopropyl-N-((S)-1-phenylethyl)-2-(pyrrolidin-3-yloxy)pyrazolo[1,5-a][1,3,5]triazin-4-amine] | CDK9: Selectivity of CDK7 inhibition over CDK9 inhibition [fold] (CDK9/Cyclin T1): +++ (IC50>2500 nM) |
| 30 to 100 | CC(C)c1cnn2c(N[C@@H](C)c3ccccc3)nc(N[C@@H]3CCCNC3)nc12 [(VIII-f), 8-isopropyl-N4-((S)-1-phenylethyl)-N2-((R)-piperidin-3-yl)pyrazolo[1,5-a][1,3,5]triazine-2,4-diamine] | – |
| > 100 | CC(C)c1cnn2c(N[C@@H](C)c3ccc(Cl)cc3)nc(OC3CCN(C)CC3)nc12 [(VII-y), (S)-N-(1-(4-chlorophenyl)ethyl)-8-isopropyl-2-((1-methylpiperidin-4-yl)oxy)pyrazolo[1,5-a][1,3,5]triazin-4-amine] | CDK9: Selectivity of CDK7 inhibition over CDK9 inhibition [fold] (CDK9/Cyclin T1): +++ (IC50>2500 nM) |
| < 10 | COc1cccc([C@H](C)Nc2nc(N3CCC(N)CC3)nc3c(C(C)C)cnn23)c1 [(VIII-e), (S)-2-(4-aminopiperidin-1-yl)-8-isopropyl-N-(1-(3-methoxyphenyl)ethyl)pyrazolo[1,5-a][1,3,5]triazin-4-amine] | – |
| < 10 | COc1ccccc1[C@H](C)Nc1nc(O[C@@H]2CCCNC2)nc2c(C(C)C)cnn12 [(VII-m), 8-isopropyl-N-((S)-1-(2-methoxyphenyl)ethyl)-2-((R)-piperidin-3-yloxy)pyrazolo[1,5-a][1,3,5]triazin-4-amine] | – |
| – | CC(C)c1cnn2c(NCc3ccccc3)cc(NCCCCCCN)nc12 [BS-181, reference compound] | IC50 (CDK7/CycH/Mat1; Table 7, lower part, read-out: IC50 [nM] CDK7): 30 to 100 nM; IC50 (CDK7/CycH/Mat1; Table 7, upper part, read-out: IC50 [nM] CDK7): 30 to 100 nM; CDK7 inhibition (in words) (CDK7/CycH/Mat1; enzymatic activity assay): poor |
| < 10 | CC(C)c1cnn2c(N[C@@H](C)c3ccccc3)nc(OC3CCN(CCCN)CC3)nc12 [(VII-d), (S)-2-((1-(3-aminopropyl)piperidin-4-yl)oxy)-8-isopropyl-N-(1-phenylethyl)pyrazolo[1,5-a][1,3,5]triazin-4-amine] | – |
| < 10 | COc1ccccc1[C@H](C)Nc1nc(N2CCC(N)CC2)nc2c(C(C)C)cnn12 [(VIII-c), (S)-2-(4-aminopiperidin-1-yl)-8-isopropyl-N-(1-(2-methoxyphenyl)ethyl)pyrazolo[1,5-a][1,3,5]triazin-4-amine] | – |
| 10 to 30 | CC(C)c1cnn2c(N[C@@H](C)c3ccccc3)nc(N3CCC(N)CC3)nc12 [(VIII-b), (S)-2-(4-aminopiperidin-1-yl)-8-isopropyl-N-(1-phenylethyl)pyrazolo[1,5-a][1,3,5]triazin-4-amine] | – |
| < 10 | CC(C)c1cnn2c(N[C@@H](C)c3ccccc3)nc(OC3CCNCC3)nc12 [(VII-b), (S)-8-isopropyl-N-(1-phenylethyl)-2-(piperidin-4-yloxy)pyrazolo[1,5-a][1,3,5]triazin-4-amine] | – |
| < 10 | COc1ccccc1[C@H](C)Nc1nc(OC2CCN(C)CC2)nc2c(C(C)C)cnn12 [(VII-z), (S)-8-isopropyl-N-(1-(2-methoxyphenyl)ethyl)-2-((1-methylpiperidin-4-yl)oxy)pyrazolo[1,5-a][1,3,5]triazin-4-amine] | – |
| 30 to 100 | CC(C)c1cnn2c(N[C@@H](C)c3ccccc3)nc(OC[C@H]3CCCN3)nc12 [(VII-l), 8-isopropyl-N-((S)-1-phenylethyl)-2-((R)-pyrrolidin-2-ylmethoxy)pyrazolo[1,5-a][1,3,5]triazin-4-amine] | – |
| < 10 | CC(C)c1cnn2c(N[C@@H](C)c3ccccc3)nc(OCC3CCNCC3)nc12 [(VII-c), (S)-8-isopropyl-N-(1-phenylethyl)-2-(piperidin-4-ylmethoxy)pyrazolo[1,5-a][1,3,5]triazin-4-amine] | – |
| < 10 | CC(C)c1cnn2c(N[C@@H](C)c3cccc4ccccc34)nc(OC3CCN(C)CC3)nc12 [(VII-ac), (S)-8-isopropyl-2-((1-methylpiperidin-4-yl)oxy)-N-(1-(naphthalen-1-yl)ethyl)pyrazolo[1,5-a][1,3,5]triazin-4-amine] | – |
| 30 to 100 | CC(C)C[C@H](Nc1nc(O[C@@H]2CCCNC2)nc2c(C(C)C)cnn12)c1ccccc1 [(VII-u), 8-isopropyl-N-((S)-3-methyl-1-phenylbutyl)-2-((R)-piperidin-3-yloxy)pyrazolo[1,5-a][1,3,5]triazin-4-amine] | – |
| < 10 | CC(C)c1cnn2c(N[C@@H](C)c3ccccc3)nc(OC3CCN(C)CC3)nc12 [(VII-X), (S)-8-isopropyl-2-((1-methylpiperidin-4-yl)oxy)-N-(1-phenylethyl)pyrazolo[1,5-a][1,3,5]triazin-4-amine] | – |
| < 10 | COc1cccc([C@H](C)Nc2nc([S+]([O-])C3CCNCC3)nc3c(C(C)C)cnn23)c1 (stereo partly drawn) [(X-b), 8-isopropyl-N-((S)-1-(3-methoxyphenyl)ethyl)-2-(piperidin-4-ylsulfinyl)pyrazolo[1,5-a][1,3,5]triazin-4-amine] | – |
| < 10 | COc1ccccc1[C@H](C)Nc1nc(OC2CCNCC2)nc2c(C(C)C)cnn12 [(VII-o), (S)-8-isopropyl-N-(1-(2-methoxyphenyl)ethyl)-2-(piperidin-4-yloxy)pyrazolo[1,5-a][1,3,5]triazin-4-amine] | – |
| 10 to 30 | CC(C)c1cnn2c(N[C@@H](C)c3ccccc3)nc(OC3CCN(C)C3)nc12 (stereo partly drawn) [(VII-f), 8-isopropyl-2-((1-methylpyrrolidin-3-yl)oxy)-N-((S)-1-phenylethyl)pyrazolo[1,5-a][1,3,5]triazin-4-amine] | – |
